Laboratory results from patent publication US11666559B2, “Spiro-lactam compounds, process and uses thereof” (UNIVERSIDADE DE COIMBRA, priority 2017, dated 2023).
Read-outs that look alike come from different tables or passages of the source.

Assays:
[1] = system: Bacillus subtillis ATCC 6633; test: Anti-bacterial activity, agar diffusion method; type: cell-based, Bacillus subtilis; conditions: at the concentration of 1 mg/ml
Method: In an embodiment, anti-bacterial activity of the compounds now disclosed was determined according to CLSI guidelines. The following bacteria were used: reference strains E. coli ATCC 10536, Staphylococcus aureus ATCC 6538, Bacillus subtilis ATCC 6633 and Enterococcus faecalis ATCC 29212; clinical strains of E. coli and Pseudomonas aeruginosa isolated in our laboratory; and strains of Lactobacillus rhamnosus and Lactobacillus plantarum also isolated in our laboratory. The Minimum Inhibitory Concentration (MIC) was determined by the agar diffusion method, in plates of Mueller-Hinton agar or Rogosa agar (for Lactobacilli). Briefly, 10^8 cfu/ml bacterial suspensions were prepared in sterile water and spread in the culture media. Sterile disks containing different concentrations of P3 were placed on the inoculated surface. Plates were incubated at 37° C. for 24 h or 48 h. Lactobacilli were incubated at microaerophilic conditions. A negative control made of sterile water was used. Disks of amoxicillin and imipenem were used as positive controls.

HIV-2 = system: HIV-2
Method: (§1) In an embodiment, TZM-bl cells (AIDS Research and Reference Reagent Program, National Institutes of Health, USA) were cultured in complete growth medium that consists of Dulbecco's minimal essential medium (DMEM) supplemented with 10% fetal bovine serum (FBS), 100 U/ml of penicillin-streptomycin (Gibco/Invitrogen, USA), 1 mM of sodium pyruvate (Gibco/Invitrogen, USA), 2 mM of L-glutamine (Gibco/Invitrogen, USA) and 1 mM of non-essential amino acids (Gibco/Invitrogen, USA).
(§2) In an embodiment, the primary isolates 93AOHDC249, 93AOHDC250, 01PTHDECJN and 03PTHCC9, used in this study were previously isolated, titrated and characterized for co-receptor usage. HIV reference strain SG3.1 was obtained by transfection of HEK293T cells with pSG3.1 (HIV-1) plasmid using Fugene 6 reagent (Roche, Switzerland) according to manufacturer's instructions.
(§3) In an embodiment, the 50% tissue culture infectious dose (TCID50) of the virus was determined in a single-round viral infectivity assay using a luciferase reporter gene assay in TZM-bl cells and calculated using the statistical method of Reed and Muench^27.
(§4) In an embodiment, the antiviral activity of the compounds was determined in a single-round assay with TZM-bl cells as previously described ^26. Cells were infected with 200 TCID50 of virus in the presence of serial fold dilutions of the BSS compounds in GM, supplemented with DEAE-dextran (19.7 μg/ml). After 48 h of infection, luciferase expression was quantified with the One-Glow luciferase assay substrate reagent (Promega, USA) according to manufacturer's instructions. Briefly, a volume of reagent equal to that of the culture medium in each well was added. For 96-well plates, typically 100 μl of reagent is added to the cells grown in 100 μl of medium. After an incubation of 3 minutes at room temperature to allow complete cell lysis luminescence was measured in Tecan Infinite M200. Background luminescence was measured by using control wells that contained only target cells and GM. Maraviroc (CCR5 antagonist), T1249 (fusion inhibitor) and AMD3100 (CXCR4 antagonist) were used as positive controls of the antiviral activity. At least two independent experiments were performed for each analysis and each assay was set up in triplicate wells.
(§5) In an embodiment, dose-response curves were estimated from the percentage of inhibition of infection (y-axis) against logo of concentration of each compound (x-axis) using the sigmoidal dose-response equation (variable slope) in GraphPad Prism version 5.00 for Windows (GraphPad Software, San Diego Calif. USA, www.graphpad.com). IC50 and IC90 values were determined from this curve. IC50 and IC90 values correspond to the concentration of compound that inhibits viral replication in 50% and 90%, respectively.

HIV-1 = conditions: for IC50 / IC90: TZM-bl cells
Method: as §1, §2, §3, §4, §5

TZM-bl cells = test: Cellular viability assay (alamarBlue) in TZM-bl cells
Description: In an embodiment, the cellular cytotoxicity of 17 spiro-β-lactams was investigated in TZM-bl cells using the AlamarBlue assay as recommended by the manufacturer (Invitrogen, USA). TZM-bl, previously designated JC53-bl (clone 13) is a HeLa cell line. The parental cell line (JC.53) stably expresses large amounts of CD4, CCR5 and CXCR4. The TZM-bl cell line was generated from JC.53 cells by introducing separate integrated copies of the luciferase and […] genes under control of the HIV-1 promoter. The TZM-bl cell line is highly sensitive to infection with diverse isolates of HIV.
In an embodiment, the cellular viability assay was carried out as follows: the potential in vitro cytotoxicity of all BSS compounds was evaluated in TZM-bl cells. TZM-bl cells (10000 cells/well in 96-well plates) were incubated in absence or presence of serial-two-fold dilutions of the compounds in growth medium (GM), with starting concentration of 100 μg/ml and a final concentration of 0.781 μg/ml. After 48 hours, cell viability was examined with alamarBlue reagent (Invitrogen, USA) according to manufacturer's instructions. Briefly, 10 μl of alamarBlue reagent was added to each well. After 4 hours at 37° C., the fluorescence was measured in Tecan Infinite M200 (excitation wavelength 550 nm and emission wavelength 600 nm).
In an embodiment, at least two independent experiments have been performed for each cytotoxicity analysis.
In an embodiment, for each assay there were medium controls (only growth medium), cell controls (cells without test compound) and cytotoxicity controls (a compound that kill cells—SDS).

[2] = 03PTHCC19, CCR5 tropic HIV-2 isolate, TZM-bl cells, wa = without antiviral activity
[3] = 03PTHCC19, CCR5 tropic HIV-2 isolate, wa = without antiviral activity
[4] = 01PTHDECJN, CCR5 tropic HIV-1 primary isolate
[5] = SG3.1, CXCR4 tropic HIV-1 adapted isolate
[6] = HIV-2 primary isolate 00PTHCC20, X4, resistant to ABC, ZDV, d4T, ddl, LPV
[7] = HIV-2 primary isolate 00PTHDECT, R5/X4, resistant to DTG
[8] = HIV-2 primary isolate 03PTHCC20, X4, resistant to ABC, ZDV, d4T, ddl, LPV
[9] = HIV-2 primary isolate 03PTHSM9, X4, resistant to SQV, LPV, DRV and TAF
[10] = HIV-2 primary isolate 10PTHSJIG, R5, resistant to RAL, DTG, LPV, SQV, DRV and all NRTIs
[11] = HIV-2 primary isolate 15PTHCEC, X4, resistant to RAL, DTG, LPV, SQV, DRV, ABC, ddl, TDF, TAF, 3TC, d4T and FTC
[12] = HIV-2 primary isolate 15PTHSJIG, R5, resistant to RAL, DTG, 3TC and FTC
[13] = Table 3, HIV-2 isolate 03PTHCC19, R5, sensitive (control isolate), TZM-bl cells
[14] = 93AOHDC249, CCR5 tropic HIV-1 primary isolate
[15] = 93AOHDC250, HIV-1 primary isolate

## COC(=O)C1=C[C@@]2(N=N1)C(=O)N1[C@@H](C(=O)O)C(C)(C)S[C@@H]12 [BSS-593, (2,3′R,5R)-5′-(methoxycarbonyl)-3,3-dimethyl-7-oxo-4-thia-1-azaspiro[bicyclo[3.2.0]heptane-6,3′-pyrazole]-2-carboxylic acid]
[1]
  inhibitory activity: no inhibitory activity
HIV-2
  anti-HIV activity against HIV-2 (in words): only active against HIV-1
HIV-2; [2]
  IC50: wa
  IC90: wa
HIV-2; [3]
  MPI (maximum percentage of inhibition): wa
HIV-1
  anti-HIV activity against HIV-1 (in words): only active against HIV-1
HIV-1; [4]
  MPI (maximum percentage of inhibition): 58%
  TI (in vitro therapeutic index, CC50/IC50): 4553.31
  IC50: 35 nM
HIV-1; [5]
  MPI (maximum percentage of inhibition): 84%
  TI (in vitro therapeutic index, CC50/IC50): 13144.76
  IC50: 12 nM
TZM-bl cells; Table 2, TZM-bl cells, 48 hours, alamarBlue
  CC50: 158000 nM
TZM-bl cells; read-out: CC50 (cytotoxic concentration 50%), Table 1, TZM-bl cells, 48 hours, alamarBlue
  CC50: 158000 nM

## CC1(C)S[C@H]2N(C(=O)[C@]23CC=C(C(=O)OCc2ccccc2)[C@@H]3C(=O)c2ccccc2)[C@H]1C(=O)OC(c1ccccc1)c1ccccc1 [BSS-730A]
[1]
  inhibitory activity: no inhibitory activity
HIV-2
  anti-HIV activity against HIV-2 (in words): potent activity
HIV-2; 03PTHCC19, CCR5 tropic HIV-2 isolate
  TI (in vitro therapeutic index, CC50/IC50): 14029.58
HIV-2; [2]
  IC50: 5 nM
  IC90: 145 nM
HIV-2; [3]
  MPI (maximum percentage of inhibition): 99%
HIV-2; HIV-2, concentration of 15.21 μM
  inhibition: about 100%
HIV-2; [6]
  IC50: 18 nM
  IC90: 73 nM
HIV-2; [7]
  IC50: 23 nM
  IC90: 57 nM
HIV-2; [8]
  IC50: 19 nM
  IC90: 95 nM
HIV-2; [9]
  IC50: 16 nM
  IC90: 116 nM
HIV-2; [10]
  IC50: 12 nM
  IC90: 32 nM
HIV-2; [11]
  IC50: 17 nM
  IC90: 51 nM
HIV-2; [12]
  IC50: 18 nM
  IC90: 56 nM
HIV-2; [13]
  IC50: 8 nM
  IC90: 64 nM
HIV-1
  anti-HIV activity against HIV-1 (in words): potent activity
HIV-1; [14]
  MPI (maximum percentage of inhibition): 99%
  TI (in vitro therapeutic index, CC50/IC50): 2946.32
  IC50: 26 nM
  IC90: 118 nM
HIV-1; [15]
  MPI (maximum percentage of inhibition): 94%
  TI (in vitro therapeutic index, CC50/IC50): 20247.69
  IC50: 4 nM
  IC90: 19.7 nM
HIV-1; HIV-1, concentration of 15.21 μM
  inhibition: about 100%
HIV-1; [5]
  MPI (maximum percentage of inhibition): 99%
  TI (in vitro therapeutic index, CC50/IC50): 5584.30
  IC50: 14 nM
  IC90: 25.2 nM
TZM-bl cells
  CC50: 76800 nM
